The record followed here is patent publication US20200140446A1, “5,8-DIMETHYL-2-[2-(1-METHYL-4-PHENYL-1H-IMIDAZOL-2-YL)-ETHYL]-[1,2,4]TRIAZOLO[1,5-A]PYRAZINE HEMIADIPATE” (H. Lundbeck A/S, priority 2018, published 2020).

Data set [1] can be described thus: Hydrate formation (precipitation from water / storage at 95% RH, XRPD). In kind it is physicochemical. Conditions: for Hydrate formation (Yes/No): summary of solid forms of Compound (I), Table 2. The source says:
To determine whether the Compound (I) hemiadipate are prone to form hydrates it was investigated if precipitation from water equilibrated over 7 days led to a new crystal form. In addition, it was explored if storage of Compound (I) hemiadipate at 95% RH for 5 months led to change in the crystal form.

Data set [2] in a line: Dynamic Vapour Sorption (DVS), hygroscopicity. Type of data set: physicochemical. To be noted: for Hygroscopic (Yes/No): summary of solid forms of Compound (I), Table 2; for hygroscopicity (DVS conclusion): RH 0% to 95%, 25° C. An excerpt:
The vapour sorption can be investigated by DVS analysis.
The vapour sorption was investigated by DVS analysis.

A short description of data set [3]: Intrinsic Dissolution Rate (IDR). In kind it is physicochemical. To be noted: 37° C., 10 mg tablet, duplicates. The procedure:
Tablets of 10 mg Compound (I) (free base or hemiadipate) were pressed and put into a micro dissolution chamber. It was subsequently measured how fast the substance was dissolved from the well-defined surface of the tablet into the solvent. The length of a full dissolution experiment was 20 min and the IDR was calculated in the range 1-2.5 min, determined as the slope of the dissolution profile in that specific range. The experiment at pH 2 was performed in 0.01 N HCl, at pH 5 in 50 mM acetate buffer and at pH 6.8 in 50 mM phosphate buffer, respectively, all at 37° C. All experiments were performed in duplicates.
Where the tablet was not fully dissolved after end of experiment, the surface was examined by XRPD, to identify if any changes of solid form have occurred during the experiment.

The nature of data set [4]: Solvate formation (shake-flask precipitation in organic solvents, XRPD). Type of data set: physicochemical. Conditions: 16 organic solvents, equilibration for 4 days. An excerpt: To determine whether the Compound (I) hemiadipate forms solvates it was investigated if solvate formation could be observed from precipitation in different organic solvents after equilibration for 4 days in the shake-flask method: Compound (I) hemiadipate was precipitated in various organic solvents from a 1:1 mixture of Compound (I) and adipic acid. The tested solvents were: acetone, acetonitrile, methanol, ethanol, 1-propanol, 2-propanol, 1-butanol, 2-butanol, ethyl acetate, isopropyl acetate, methyl isobutyl ketone, tetrahydrofuran, diethylether, N-methylpyrrolidone, dichloromethane, and n-heptane.

Another data set relates to rats. Briefly: Conditioned Avoidance Response (CAR) in rats, high dopamine state. In kind it is in vivo. An excerpt:
The inventors of the present invention put forward the hypothesis that many patients with exacerbated positive symptoms can be expected to have increased striatal dopamine levels. Since the dopamine receptors regulate the dopamine signal by controlling cAMP synthesis and PDE10A regulates the gain of this signal by controlling cAMP degradation, the effect of PDE10A inhibition might be altered in conditions with increased striatal dopamine tonus, such as found in patients with prominent positive symptoms. To investigate this further the effect of compounds of the invention were tested in the CAR assay in rats that were co-dosed with a low dose of d-amphetamine (0.20-0.25 mg/kg) to induce a high dopamine state (FIG. 4). […] Compound (I) was tested alone and in combination with a low dose d-amphetamine to induce a high dopamine state. The efficacy was measured as the mean number of avoidances and results are depicted as mean+/−SEM. […] Bars represent the following dose groups (left to right): 1) Vehicle; 2) d-amphetamine (0.2 mg/kg); 3) Compound (I) (0.6 mg/kg); 4) Compound (I) (0.3 mg/kg)+d-amphetamine (0.2 mg/kg); 5) Compound (I) (0.6 mg/kg)+d-amphetamine (0.2 mg/kg); and 6) Compound (I) (3.0 mg/kg)+d-amphetamine (0.2 mg/kg). ** p<0.01 compared to vehicle. ns=non-significant.

Marks after values point to notes of the source that are not given here.

As to `O=C(O)CCC(=O)C(=O)O` [2-oxoglutarate], the “Hydrate formation (Yes/No)” value in data set [1] is on record as “Yes”. Further, the “Hygroscopic (Yes/No)” value in data set [2] was “Yes”.
With Malonate, in data set [1], the “Hydrate formation (Yes/No)” value is “Yes”. Besides, in data set [2], the “Hygroscopic (Yes/No)” value is “Yes”.
Consider `Cl` [Hydrogen Chloride], for which the “Hydrate formation (Yes/No)” value in data set [1] was “Yes”. Also, the “Hygroscopic (Yes/No)” value in data set [2] is recorded as “Yes”.
As to L(−)-malate, in data set [1], the “Hydrate formation (Yes/No)” value is on record as “Yes”. Also, in data set [2], the “Hygroscopic (Yes/No)” value is given as “Yes”.
With L(+)-tartrate, the “Hydrate formation (Yes/No)” value in data set [1] is listed as “Yes”.
Glutarate: the “Hydrate formation (Yes/No)” value in data set [1] was “Yes”.
Turning to `Cc1ncc(C)n2nc(CCc3nc(-c4ccccc4)cn3C)nc12` [Compound (I) hemiadipate, 5,8-Dimethyl-2-[2-(1-methyl-4-phenyl-1H-imidazol-2-yl)-ethyl]-[1,2,4]triazolo[1,5-a]pyrazine hemiadipate], the “change of crystal form after storage at 95% RH” value in data set [1] (95% RH for 5 months, XRPD) is on record as “had not changed from the original form”. Also, the “Hydrate formation (Yes/No)” value in data set [1] was “No”. For the same molecule, the “change of crystal form after precipitation from water” value in data set [1] (water, equilibrated over 7 days, XRPD) is given as “had not changed from the original form”. Besides, the “IDR Average” value in data set [3] (pH 2, 0.01 N HCl) is listed as >2* mg/cm^2 × min; in data set [3] (pH 5, 50 mM acetate buffer), 0.3 mg/cm^2 × min; in data set [3] (pH 6.8, 50 mM phosphate buffer) it was 0.04 mg/cm^2 × min. In data set [2] (DVS, 95% RH at 25° C.), the vapour sorption entry is reported as “less than 0.1%”. The “hygroscopicity (DVS conclusion)” value in data set [2] (DVS) is recorded as “non-hygroscopic”. In addition, the “Hygroscopic (Yes/No)” value in data set [2] is recorded as “No”. Moreover, the solvate formation entry in data set [4] is “does not form solvates”.
`Cc1ncc(C)n2nc(CCc3nc(-c4ccccc4)cn3C)nc12.O=C[C@H](O)[C@@H](O)[C@H](O)[C@H](O)C(=O)O` [D-glucoronate]: in data set [1], the “Hydrate formation (Yes/No)” value is recorded as “Yes”. Besides, in data set [2], the “Hygroscopic (Yes/No)” value is on record as “Yes”.
Regarding Maleate, the “Hydrate formation (Yes/No)” value in data set [1] is “Yes”. Further, the “Hygroscopic (Yes/No)” value in data set [2] is “Yes”.
`Cc1ncc(C)n2nc(CCc3nc(-c4ccccc4)cn3C)nc12.O=S(=O)(O)O` [Hydrogen sulphate]: the “Hydrate formation (Yes/No)” value in data set [1] was “Yes”.
With Oxalate, the “Hydrate formation (Yes/No)” value in data set [1] was “Yes”. Further, the “Hygroscopic (Yes/No)” value in data set [2] is listed as “Yes”.
For `Cc1ncc(C)n2nc(CCc3nc(-c4ccccc4)cn3C)nc12` [Compound (I), 5,8-Dimethyl-2-[2-(1-methyl-4-phenyl-1H-imidazol-2-yl)-ethyl]-[1,2,4]triazolo[1,5-a]pyrazine], the “Hydrate formation (Yes/No)” value in data set [1] (listed as Free base) was “Yes”. Moreover, the “IDR Average” value in data set [3] (pH 2, 0.01 N HCl, listed as Compound (I) free base) is given as 1.45 mg/cm^2 × min; in data set [3] (pH 5, 50 mM acetate buffer, listed as Compound (I) free base), 0.101 mg/cm^2 × min; in data set [3] (pH 6.8, 50 mM phosphate buffer, listed as Compound (I) free base), 0.025 mg/cm^2 × min. Moreover, in data set [2] (DVS, listed as free base), the “hygroscopicity (DVS conclusion)” value is “very hygroscopic”. In data set [2] (listed as Free base), the “Hygroscopic (Yes/No)” value was “Yes”. In addition, the “effect on CAR (mean number of avoidances), combined with d-amphetamine” value in the data set on rats (Compound (I) 0.3, 0.6, 3.0 mg/kg + d-amphetamine 0.2 mg/kg (high dopamine state)) is “this effect was abolished”. In addition, in the data set on rats (Compound (I) alone (0.6 mg/kg), ** p<0.01 compared to vehicle), the “effect on CAR (mean number of avoidances), dosed alone” value is on record as “reduced CAR”.
Take `O=P(O)(O)O` [Dihydrogen Phosphate]: the “Hydrate formation (Yes/No)” value in data set [1] is given as “Yes”.
On to Fumarate, for which, in data set [1], the “Hydrate formation (Yes/No)” value is given as “Yes”.
For `Br.Cc1ncc(C)n2nc(CCc3nc(-c4ccccc4)cn3C)nc12` [Hydrogen Bromide], the “Hydrate formation (Yes/No)” value in data set [1] was “Yes”. Besides, the “Hygroscopic (Yes/No)” value in data set [2] is recorded as “Yes”.
On to Tosylate, for which the “Hydrate formation (Yes/No)” value in data set [1] is “Yes”. Also, the “Hygroscopic (Yes/No)” value in data set [2] is listed as “Yes”.
Take Citrate: the “Hydrate formation (Yes/No)” value in data set [1] is “Yes”. For the same molecule, the “Hygroscopic (Yes/No)” value in data set [2] is “Yes”.
